Patent US12102637B2, “Pharmaceutical formulations for treating endometriosis, uterine fibroids, polycystic ovary syndrome or adenomyosis” (AbbVie Inc., priority 2017, dated 2024)
Marks after values point to notes of the source that are not given here.

Legend:
[1] = test system: monkeys; assay: Repeat-dose study in monkeys (reproductive organs); assay type: in vivo, monkey; conditions: monkeys, 75, 150, 300 and 600 mg/kg/day, all doses
Text: (§1) Based on pharmacologic actions of elagolix in humans a reversible effect on fertility may be expected in women.

[2] = test system: premenopausal women with HMB, uterine fibroids and adenomyosis; assay: Phase 2b trial in women with HMB and uterine fibroids, subgroup with non-dominant adenomyosis; assay type: in vivo, human
Method: Patients and Methods: […] Elagolix studied in this clinical trial comprised the sodium salt of Compound A. All subjects were evaluated with ultrasound and a subset volunteered to also be evaluated by MRI. […] Efficacy and safety were evaluated post hoc in a subgroup of women who had confirmed non-dominant adenomyosis (ultrasound/MRI) at baseline. Menstrual blood loss (MBL) was quantified from sanitary products (alkaline hematin). […] Adverse events (AEs) were recorded.

[3] = test system: premenopausal women with endometriosis with associated pain; assay: Rescue analgesic (opioid, naproxen) use in EM-I and EM-II; assay type: in vivo, human
Method: These effects were less consistently observed for women taking elagolix 150 mg QD. […] Reduction in pain may be reflected by reduction in pain medication, such as prescription opioids or non-steroidal anti-inflammatory agents (NSAIDs) that may be prescribed or found over the counter, for example, naproxen or acetaminophen. […] In this pooled analysis of rescue analgesic use in two phase 3 trials, compared with placebo: […] […] In EM-1 and EM-2, 59% and 60% of patients used an opioid rescue analgesic for pain at baseline. The opioid rescue analgesics used at baseline were predominantly hydrocodone/acetaminophen (HC/APAP) and codeine/APAP at strengths of 5/300-325 mg and 30/300-500 mg. In EM-1, of all patients on an opioid at baseline, 98% and 2% were on HC/APAP and codeine/APAP, respectively. In EM-2, of all patients on an opioid at baseline, 50% were on HC/APAP, 16% were on codeine/APAP, 3% were on codeine, and 32% were on tramadol/APAP.

[4] = test system: luteinizing hormone (LH) and follicle-stimulating hormone (FSH); assay: Suppression of LH and FSH levels; assay type: in vivo, human; conditions: begins within hours of administration, reversible upon discontinuation
Text: (I) Elagolix is an orally administered, short-acting, selective, non-peptide small molecule GnRH receptor antagonist that blocks endogenous GnRH signaling by binding competitively to GnRH receptors in the pituitary gland. […] LH and FSH suppression begins within hours of administration and is readily reversible upon discontinuation of elagolix.

[5] = test system: premenopausal women with endometriosis with associated pain; assay: Study EM-I: responders on Daily Endometriosis Pain Impact Scale; assay type: in vivo, human; conditions: 150 mg QD
Text: Each placebo-controlled study assessed the reduction in endometriosis-associated pain over 6 months of treatment. More than 75 percent of women who completed Study EM-I and EM-II enrolled in the extension studies for an additional 6 months treatment period. Subjects were followed for up to 12 months post-treatment. See FIGS. 11-14 The co-primary efficacy endpoints were the proportion of responders for dysmenorrhea and pelvic pain not related to menses (also known as non-menstrual pelvic pain [NMPP]) at Month 3 compared to placebo. The primary analysis independently evaluated these endpoints using a daily diary that asked patients to assess their pain and its impact on their daily activities, over the previous 24 hours. […] Women were defined as responders if they experienced clinically meaningful reduction in dysmenorrhea and/or NMPP with no increased analgesic use for endometriosis associated pain. Dyspareunia was evaluated as a secondary endpoint using the Daily Endometriosis Pain Impact Scale.

[6] = Drug interaction studies: elagolix in the presence of co-administered drug; assay type: in vivo, human; conditions: for AUC Ratio (co-administration vs elagolix alone) / Cmax Ratio (co-administration vs elagolix alone): elagolix 150 mg single dose
Method: Drug interaction studies were performed with elagolix and other drugs that are likely to be co-administered and with drugs commonly used as probes for pharmacokinetic interactions.

[7] = biological target: efflux transporter P-glycoprotein (P-gp) (Homo sapiens, UniProt P08183); assay: Elagolix as inhibitor and substrate of P-gp
efflux transporter P-glycoprotein (P-gp), sequence (P08183 whole entry): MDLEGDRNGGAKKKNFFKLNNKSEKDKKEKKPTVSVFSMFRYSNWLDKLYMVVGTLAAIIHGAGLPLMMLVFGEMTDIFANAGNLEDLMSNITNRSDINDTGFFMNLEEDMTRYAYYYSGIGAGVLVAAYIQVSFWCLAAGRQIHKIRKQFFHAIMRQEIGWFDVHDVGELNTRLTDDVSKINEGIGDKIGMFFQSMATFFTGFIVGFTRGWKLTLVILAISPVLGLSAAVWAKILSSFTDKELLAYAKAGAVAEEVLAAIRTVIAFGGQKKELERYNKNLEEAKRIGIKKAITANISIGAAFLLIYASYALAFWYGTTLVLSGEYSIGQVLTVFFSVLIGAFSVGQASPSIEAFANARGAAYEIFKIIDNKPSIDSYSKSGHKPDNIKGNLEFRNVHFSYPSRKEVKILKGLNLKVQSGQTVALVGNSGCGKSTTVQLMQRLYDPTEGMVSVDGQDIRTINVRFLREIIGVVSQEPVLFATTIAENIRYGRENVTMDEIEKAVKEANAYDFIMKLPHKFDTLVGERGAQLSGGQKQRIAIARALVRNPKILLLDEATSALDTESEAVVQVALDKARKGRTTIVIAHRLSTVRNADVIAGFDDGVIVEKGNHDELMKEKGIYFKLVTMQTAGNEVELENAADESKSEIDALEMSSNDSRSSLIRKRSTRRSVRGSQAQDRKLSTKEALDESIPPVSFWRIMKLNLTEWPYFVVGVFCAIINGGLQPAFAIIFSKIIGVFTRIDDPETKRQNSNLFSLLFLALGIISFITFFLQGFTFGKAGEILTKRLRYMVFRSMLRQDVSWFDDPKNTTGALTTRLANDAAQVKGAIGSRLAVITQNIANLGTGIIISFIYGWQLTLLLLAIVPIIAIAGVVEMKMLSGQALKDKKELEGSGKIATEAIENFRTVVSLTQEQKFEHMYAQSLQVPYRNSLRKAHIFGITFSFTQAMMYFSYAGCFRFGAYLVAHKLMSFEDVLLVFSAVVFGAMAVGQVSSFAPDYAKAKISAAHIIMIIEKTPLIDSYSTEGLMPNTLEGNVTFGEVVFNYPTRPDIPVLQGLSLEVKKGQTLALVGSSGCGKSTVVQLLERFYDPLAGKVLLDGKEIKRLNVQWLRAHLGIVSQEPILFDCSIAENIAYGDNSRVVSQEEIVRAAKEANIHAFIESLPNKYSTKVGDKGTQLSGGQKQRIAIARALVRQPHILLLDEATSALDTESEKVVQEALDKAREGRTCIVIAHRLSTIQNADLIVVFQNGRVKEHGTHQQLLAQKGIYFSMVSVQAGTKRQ
Method: Elagolix is an inhibitor of efflux transporter P-glycoprotein (P-gp) at 200 mg BID or higher, such as 300 mg BID or 400 mg QD or 600 mg QD. Co-administration with ELAGOLIX 200 mg BID may increase plasma concentration of drugs that are substrates of P-gp.
Elagolix is a substrate of CYP3A, P-gp, and organic anion transporting polypeptide (OATP)1B1. Clinically meaningful interactions are not expected when elagolix is co-administered with drugs that inhibit CYP3A or P-gp.

[8] = test system: rats; assay: Fertility and repeat-dose studies in rats; assay type: in vivo, rat
Text: as §1

[9] = test system: mice; assay: 2-year carcinogenicity study in mice; assay type: in vivo; conditions: mouse, any dose
[10] = test system: women treated in Studies EM-1 and EM-2; assay: Suicidal ideation, suicidal behavior and mood disorders in Studies EM-1 and EM-2; assay type: in vivo, human
Text: Patients with depressive symptoms should be evaluated to determine whether the risks of continued therapy outweigh the benefits. Patients with new or worsening depression, anxiety or other mood changes should be referred to a mental health professional, as appropriate. Patients with suicidal ideation and behavior should seek immediate medical attention. Benefits and risks of continuing elagolix should be revaluated if such events occur and optionally, elagolix should be stopped with worsening or serious depression, anxiety, mood changes or suicidal ideation.
In the placebo-controlled trials (Studies EM-1 and EM-2), elagolix was associated with adverse mood changes, particularly in those with a history of depression.

[11] = test system: endometrium; assay: Endometrial biopsies in Study EM-I and its extension; assay type: in vivo, human; conditions: Month 6 and Month 12
Method: Endometrial biopsies were performed in subjects in Study EM-I and its extension at Month 6 and Month 12.

[12] = Ketoconazole 400 mg once daily, N 11
[13] = Rifampin 600 mg single dose, N 12

Structure (SMILES): COc1cccc(-c2c(C)n(Cc3c(F)cccc3C(F)(F)F)c(=O)n(C[C@H](NCCCC(=O)O)c3ccccc3)c2=O)c1F [Compound A, 4-((R)-2-[5-(2-fluoro-3-methoxy-phenyl)-3-(2-fluoro-6-trifluoromethyl-benzyl)-4-methyl-2,6-dioxo-3,6-dihydro-2H-pyrimidin-1-yl]-1-phenyl-ethylamino)-butyric acid]
- reproductive organ findings in repeat-dose study [1]: reversible atrophy of reproductive organs (cervix, uterus and vagina)
- proportion of women with ≥50% reduction from baseline in HMB and <80 mL MBL in the last 28 days of treatment ([2]; Cohort 1, elagolix 300 mg BID with 0.5 mg E2/0.1 mg NETA (n=12)): 83%
- proportion of women with ≥50% reduction from baseline in HMB and <80 mL MBL in the last 28 days of treatment ([2]; Cohort 1, elagolix 300 mg BID with 1.0 mg E2/0.5 mg NETA (n=5)): 100%
- proportion of women with ≥50% reduction from baseline in HMB and <80 mL MBL in the last 28 days of treatment ([2]; Cohort 2, elagolix 600 mg QD with 0.5 mg E2/0.1 mg NETA (n=14)): 93%
- proportion of women with ≥50% reduction from baseline in HMB and <80 mL MBL in the last 28 days of treatment ([2]; Cohort 2, elagolix 600 mg QD with 1.0 mg E2/0.5 mg NETA (n=9)): 89%
- At least 1 AE, related or unrelated to study drug ([2]; elagolix-treated groups (n=22) in Cohort 1): 77%
- At least 1 AE, related or unrelated to study drug ([2]; elagolix-treated groups (n=38) in Cohort 2): 67%
- amount of opioid or naproxen rescue medication used vs baseline ([3]; 200 mg BID): reduced the amount of opioid (hydrocodone with acetaminophen) or naproxen rescue medication
- mean percent daily rescue opioid pill counts ([3]; pooled analysis, 200 mg BID, vs placebo): significant reduction in the mean percent daily pill counts
- percentage of days in which rescue opioid medication was taken ([3]; pooled analysis, both doses 150 QD and 200 BID, vs placebo): significant reduction in the percentage of days in which rescue opioid medication was taken
- LH and FSH levels [4]: dose-dependent suppression
- Proportion of Responders, Dysmenorrhea (Month 3) [5]: 45.4*** %
- AUC Ratio (co-administration vs elagolix alone) [6, 12]: 2.20
- Cmax Ratio (co-administration vs elagolix alone) [6, 12]: 1.77
- AUC Ratio (co-administration vs elagolix alone) ([6]; Rifampin 600 mg once daily): 1.65
- Cmax Ratio (co-administration vs elagolix alone) ([6]; Rifampin 600 mg once daily): 2.00
- AUC Ratio (co-administration vs elagolix alone) [6, 13]: 5.58
- Cmax Ratio (co-administration vs elagolix alone) [6, 13]: 4.37
- direction of the change in AUC of elagolix ([6]; concomitant rifampin): ↑ elaolix
- substrate of P-gp [7]: substrate
- inhibition of efflux transporter P-glycoprotein (P-gp) ([7]; at 200 mg BID or higher): inhibitor
- effect in fertility study ([8]; doses 50, 150, 300 mg/kg/day): no effect
- ovarian findings in repeat-dose study ([8]; doses 600, 800 mg/kg/day): involution and a decrease in corpora lutea in ovaries
- tumors, 2-year carcinogenicity study [9]: no increase in tumors
- Completed Suicide, % ([10]; 150 mg Once Daily (N = 475)): 0.2%
- Depressed Mood, depression, depressive symptoms and or tearfulness, % ([10]; 150 mg Once Daily (N = 475)): 2.7%
- Mood altered, mood swings, % ([10]; 150 mg Once Daily (N = 475)): 5.7%
- Suicidal ideation, % ([10]; 150 mg Once Daily (N = 475)): 0.2%
- Depressed Mood, depression, depressive symptoms and or tearfulness, % ([10]; 200 mg Twice Daily (N = 477)): 6.1%
- Mood altered, mood swings, % ([10]; 200 mg Twice Daily (N = 477)): 5.2%
- Suicidal ideation, % ([10]; 200 mg Twice Daily (N = 477)): 0.2%
- incidence of depression and mood changes ([10]; vs placebo): higher incidence of depression and mood changes compared to placebo
- endometrial biopsy findings [11]: no abnormal biopsy findings post-baseline
